Values quoted from earlier work as cited in patent publication US20250228808A1, “COMPOSITIONS AND METHODS FOR THE TREATMENT OF CORONAVIRUS DISEASES” (priority 2022, published 2025).

Experiments:
[1] = Lu S C 2000
[2] = entry into the cell
[3] = Sansone 2011

Row | Compound | half-life in the blood [1] | membrane permeability [2] | fraction of dose excreted by the kidneys [3]
1 | N[C@@H](CCC(=O)N[C@@H](CS)C(=O)NCC(=O)O)C(=O)O [GSH, glutathione] | seconds to minutes | membrane-impermeable | 
2 | CC(=O)N[C@@H](CS)C(=O)O [NAC, N-acetyl cysteine] |  |  | one-third
